Reference: the supplement of paper PMC13207355

Assays:
Details in all cases: exposure time: 72 h
[1] = system: FT3469 (normal neural stem cell line); assay: surviving fraction (nuclei count normalised to DMSO); higher = more cells surviving (less toxic)
[2] = system: E34 (patient-derived glioblastoma stem cells of proneural subtype); assay: as above
[3] = system: E21 (patient-derived glioblastoma stem cells of mesenchymal subtype); assay: as above
[4] = system: E28 (patient-derived glioblastoma stem cells of classical subtype); assay: as above
[5] = system: E31 (patient-derived glioblastoma stem cells of proneural subtype); assay: as above
[6] = system: E13 (patient-derived glioblastoma stem cells of classical subtype); assay: as above
[7] = system: E57 (patient-derived glioblastoma stem cells of mesenchymal subtype); assay: as above
[8] = system: FT3469; assay: phenotypic distance (Euclidean, principal components) from DMSO controls (arbitrary units); higher = stronger morphological change
[9] = system: E34; assay: as above
[10] = system: E21; assay: as above
[11] = system: E28; assay: as above
[12] = system: E31; assay: as above
[13] = system: E13; assay: as above
[14] = system: E57; assay: as above
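For phenotypic distance (Euclidean, principal components) from DMSO controls in this document: cell Painting imaging in 384-well plates, CellProfiler features reduced to at least 20 principal components, Euclidean distance versus same-plate DMSO vehicle wells (0.1% v/v), median over six images per well.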
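For surviving fraction (nuclei count normalised to DMSO) in this document: nuclei counted by high-content imaging of Hoechst-stained cells in laminin-coated 384-well plates, relative to 0.1% DMSO vehicle wells, with staurosporine as cell-death control.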

## CC(C)C[C@H](NC(=O)[C@H](Cc1ccccc1)NC(=O)c1cnccn1)B(O)O [Bortezomib]
[1]; 4.11523 nM
  surviving fraction: 0.207
[1]; 12.34567901 nM
  surviving fraction: 0.193
[1]; 37.037 nM
  surviving fraction: 0.233
[1]; 111.1111111 nM
  surviving fraction: 0.161
[1]; 333.333 nM
  surviving fraction: 0.158
[1]; 1000 nM
  surviving fraction: 0.121
[1]; 3000 nM
  surviving fraction: 0.104
[2]; 4.11523 nM
  surviving fraction: 0.0594
[2]; 12.34567901 nM
  surviving fraction: 0.0507
[2]; 37.037 nM
  surviving fraction: 0.0385
[2]; 111.1111111 nM
  surviving fraction: 0.0332
[2]; 333.333 nM
  surviving fraction: 0.035
[2]; 1000 nM
  surviving fraction: 0.0227
[2]; 3000 nM
  surviving fraction: 0.0385
[3]; 4.11523 nM
  surviving fraction: 0.00595
[3]; 12.34567901 nM
  surviving fraction: 0.00198
[3]; 37.037 nM
  surviving fraction: 0.000991
[3]; 111.1111111 nM
  surviving fraction: 0.000991
[3]; 333.333 nM
  surviving fraction: 0.00297
[3]; 1000 nM
  surviving fraction: 0.00198
[3]; 3000 nM
  surviving fraction: 0
[4]; 4.11523 nM
  surviving fraction: 0.0619
[4]; 12.34567901 nM
  surviving fraction: 0.0854
[4]; 37.037 nM
  surviving fraction: 0.0576
[4]; 111.1111111 nM
  surviving fraction: 0.0896
[4]; 333.333 nM
  surviving fraction: 0.0747
[4]; 1000 nM
  surviving fraction: 0.0576
[4]; 3000 nM
  surviving fraction: 0.105
[5]; 4.11523 nM
  surviving fraction: 0.00325
[5]; 12.34567901 nM
  surviving fraction: 0.0114
[5]; 37.037 nM
  surviving fraction: 0.00651
[5]; 111.1111111 nM
  surviving fraction: 0
[5]; 333.333 nM
  surviving fraction: 0.00163
[5]; 1000 nM
  surviving fraction: 0
[5]; 3000 nM
  surviving fraction: 0.00163
[6]; 4.11523 nM
  surviving fraction: 0.00185
[6]; 12.34567901 nM
  surviving fraction: 0.551
[6]; 37.037 nM
  surviving fraction: 0.000925
[6]; 111.1111111 nM
  surviving fraction: 0.0074
[6]; 333.333 nM
  surviving fraction: 0.000925
[6]; 1000 nM
  surviving fraction: 0.00185
[6]; 3000 nM
  surviving fraction: 0
[7]; 4.11523 nM
  surviving fraction: 0.00967
[7]; 12.34567901 nM
  surviving fraction: 0.00153
[7]; 37.037 nM
  surviving fraction: 0.00662
[7]; 111.1111111 nM
  surviving fraction: 0.00611
[7]; 333.333 nM
  surviving fraction: 0.00255
[7]; 1000 nM
  surviving fraction: 0.00305
[7]; 3000 nM
  surviving fraction: 0.00611
[8]; 4.11523 nM
  phenotypic distance: 5.9
[8]; 12.34567901 nM
  phenotypic distance: 7.61
[8]; 37.037 nM
  phenotypic distance: 8.16
[8]; 111.1111111 nM
  phenotypic distance: 8
[8]; 333.333 nM
  phenotypic distance: 7.22
[8]; 1000 nM
  phenotypic distance: 8.26
[8]; 3000 nM
  phenotypic distance: 6
[9]; 4.11523 nM
  phenotypic distance: 10.2
[9]; 12.34567901 nM
  phenotypic distance: 9.58
[9]; 37.037 nM
  phenotypic distance: 13.4
[9]; 111.1111111 nM
  phenotypic distance: 13.5
[9]; 333.333 nM
  phenotypic distance: 13.9
[9]; 1000 nM
  phenotypic distance: 12.6
[9]; 3000 nM
  phenotypic distance: 12.6
[10]; 4.11523 nM
  phenotypic distance: 10.7
[10]; 12.34567901 nM
  phenotypic distance: 17.6
[10]; 37.037 nM
  phenotypic distance: 18.1
[10]; 111.1111111 nM
  phenotypic distance: 23.9
[10]; 333.333 nM
  phenotypic distance: 14.3
[10]; 1000 nM
  phenotypic distance: 18.7
[10]; 3000 nM
  phenotypic distance: 23.7
[11]; 4.11523 nM
  phenotypic distance: 5.69
[11]; 12.34567901 nM
  phenotypic distance: 4.88
[11]; 37.037 nM
  phenotypic distance: 6.77
[11]; 111.1111111 nM
  phenotypic distance: 5.66
[11]; 333.333 nM
  phenotypic distance: 5.33
[11]; 1000 nM
  phenotypic distance: 6.17
[11]; 3000 nM
  phenotypic distance: 5.47
[12]; 4.11523 nM
  phenotypic distance: 8.53
[12]; 12.34567901 nM
  phenotypic distance: 10.1
[12]; 37.037 nM
  phenotypic distance: 10.2
[12]; 111.1111111 nM
  phenotypic distance: 21.4
[12]; 333.333 nM
  phenotypic distance: 11.7
[12]; 1000 nM
  phenotypic distance: 17.1
[12]; 3000 nM
  phenotypic distance: 12.6
[13]; 4.11523 nM
  phenotypic distance: 16.9
[13]; 12.34567901 nM
  phenotypic distance: 2.3
[13]; 37.037 nM
  phenotypic distance: 17.1
[13]; 111.1111111 nM
  phenotypic distance: 12
[13]; 333.333 nM
  phenotypic distance: 14.2
[13]; 1000 nM
  phenotypic distance: 13.5
[13]; 3000 nM
  phenotypic distance: 21.9
[14]; 4.11523 nM
  phenotypic distance: 10.4
[14]; 12.34567901 nM
  phenotypic distance: 15.6
[14]; 37.037 nM
  phenotypic distance: 11.2
[14]; 111.1111111 nM
  phenotypic distance: 10.8
[14]; 333.333 nM
  phenotypic distance: 12.5
[14]; 1000 nM
  phenotypic distance: 12.2
[14]; 3000 nM
  phenotypic distance: 9.88

## CC(=O)CC(c1ccc([N+](=O)[O-])cc1)c1c(O)c2ccccc2oc1=O (stereo unspecified) [Acenocoumarol]
[1]; 4.1 nM
  surviving fraction: 1.01
[1]; 12.3 nM
  surviving fraction: 1.07
[1]; 37 nM
  surviving fraction: 0.881
[1]; 111.1 nM
  surviving fraction: 1.12
[1]; 333.3 nM
  surviving fraction: 0.823
[1]; 1000 nM
  surviving fraction: 0.849
[1]; 3000 nM
  surviving fraction: 0.771
[2]; 4.1 nM
  surviving fraction: 0.771
[2]; 12.3 nM
  surviving fraction: 1.01
[2]; 37 nM
  surviving fraction: 1.04
[2]; 111.1 nM
  surviving fraction: 1.06
[2]; 333.3 nM
  surviving fraction: 0.935
[2]; 1000 nM
  surviving fraction: 0.918
[2]; 3000 nM
  surviving fraction: 0.892
[3]; 4.1 nM
  surviving fraction: 0.926
[3]; 12.3 nM
  surviving fraction: 1.09
[3]; 37 nM
  surviving fraction: 0.897
[3]; 111.1 nM
  surviving fraction: 0.931
[3]; 333.3 nM
  surviving fraction: 0.865
[3]; 1000 nM
  surviving fraction: 0.954
[3]; 3000 nM
  surviving fraction: 0.852
[4]; 4.1 nM
  surviving fraction: 0.905
[4]; 12.3 nM
  surviving fraction: 0.999
[4]; 37 nM
  surviving fraction: 0.918
[4]; 111.1 nM
  surviving fraction: 0.967
[4]; 333.3 nM
  surviving fraction: 1.06
[4]; 1000 nM
  surviving fraction: 0.92
[4]; 3000 nM
  surviving fraction: 0.901
[5]; 4.1 nM
  surviving fraction: 0.989
[5]; 12.3 nM
  surviving fraction: 0.923
[5]; 37 nM
  surviving fraction: 0.848
[5]; 111.1 nM
  surviving fraction: 0.934
[5]; 333.3 nM
  surviving fraction: 1.03
[5]; 1000 nM
  surviving fraction: 0.955
[5]; 3000 nM
  surviving fraction: 0.809
[6]; 4.1 nM
  surviving fraction: 0.91
[6]; 12.3 nM
  surviving fraction: 1.04
[6]; 37 nM
  surviving fraction: 1.05
[6]; 111.1 nM
  surviving fraction: 1.03
[6]; 333.3 nM
  surviving fraction: 0.873
[6]; 1000 nM
  surviving fraction: 0.931
[6]; 3000 nM
  surviving fraction: 0.767
[7]; 4.1 nM
  surviving fraction: 1.08
[7]; 12.3 nM
  surviving fraction: 1.09
[7]; 37 nM
  surviving fraction: 1.02
[7]; 111.1 nM
  surviving fraction: 1.07
[7]; 333.3 nM
  surviving fraction: 1.03
[7]; 1000 nM
  surviving fraction: 0.983
[7]; 3000 nM
  surviving fraction: 1.02
[8]; 4.1 nM
  phenotypic distance: 1.4
[8]; 12.3 nM
  phenotypic distance: 0.712
[8]; 37 nM
  phenotypic distance: 1.02
[8]; 111.1 nM
  phenotypic distance: 0.751
[8]; 333.3 nM
  phenotypic distance: 0.862
[8]; 1000 nM
  phenotypic distance: 0.691
[8]; 3000 nM
  phenotypic distance: 0.764
[9]; 4.1 nM
  phenotypic distance: 1.2
[9]; 12.3 nM
  phenotypic distance: 0.513
[9]; 37 nM
  phenotypic distance: 1.59
[9]; 111.1 nM
  phenotypic distance: 0.677
[9]; 333.3 nM
  phenotypic distance: 0.562
[9]; 1000 nM
  phenotypic distance: 0.954
[9]; 3000 nM
  phenotypic distance: 0.563
[10]; 4.1 nM
  phenotypic distance: 1.01
[10]; 12.3 nM
  phenotypic distance: 0.655
[10]; 37 nM
  phenotypic distance: 0.963
[10]; 111.1 nM
  phenotypic distance: 0.772
[10]; 333.3 nM
  phenotypic distance: 0.946
[10]; 1000 nM
  phenotypic distance: 0.684
[10]; 3000 nM
  phenotypic distance: 1.11
[11]; 4.1 nM
  phenotypic distance: 1.02
[11]; 12.3 nM
  phenotypic distance: 0.39
[11]; 37 nM
  phenotypic distance: 0.547
[11]; 111.1 nM
  phenotypic distance: 0.548
[11]; 333.3 nM
  phenotypic distance: 0.562
[11]; 1000 nM
  phenotypic distance: 1.03
[11]; 3000 nM
  phenotypic distance: 0.857
[12]; 4.1 nM
  phenotypic distance: 0.829
[12]; 12.3 nM
  phenotypic distance: 0.483
[12]; 37 nM
  phenotypic distance: 1.07
[12]; 111.1 nM
  phenotypic distance: 0.701
[12]; 333.3 nM
  phenotypic distance: 0.894
[12]; 1000 nM
  phenotypic distance: 0.819
[12]; 3000 nM
  phenotypic distance: 1.06
[13]; 4.1 nM
  phenotypic distance: 0.426
[13]; 12.3 nM
  phenotypic distance: 0.665
[13]; 37 nM
  phenotypic distance: 2.8
[13]; 111.1 nM
  phenotypic distance: 0.663
[13]; 333.3 nM
  phenotypic distance: 0.594
[13]; 1000 nM
  phenotypic distance: 0.586
[13]; 3000 nM
  phenotypic distance: 0.934
[14]; 4.1 nM
  phenotypic distance: 0.94
[14]; 12.3 nM
  phenotypic distance: 1.02
[14]; 37 nM
  phenotypic distance: 1.11
[14]; 111.1 nM
  phenotypic distance: 1.36
[14]; 333.3 nM
  phenotypic distance: 0.492
[14]; 1000 nM
  phenotypic distance: 0.718
[14]; 3000 nM
  phenotypic distance: 0.744
